Test results published in ChEMBL document CHEMBL1201862, “PubChem BioAssay data set” (2004).
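96-well plates; 48 h exposure; 5 concentrations. Endpoints by linear interpolation between flanking doses. Not reached: highest tested concentration assigned. Abbreviation: GI50, concentration required for 50% inhibition of growth.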 Activity calls are given as the source filed them. Cut-off read from the data, not from the text of the source: active = GI50 up to about 1.1 µM and inactive = higher.

What was measured:
Assay in all cases: NCI tumour cell line growth inhibition, 48 h
786-0 = test system: 786-0
A498 = test system: A498
A549 = test system: A549
ACHN = test system: ACHN
BT-549 = test system: BT-549
CAKI-1 = test system: CAKI-1
CCRF-CEM = test system: CCRF-CEM
COLO 205 = test system: COLO 205
DU-145 = test system: DU-145
HCT-116 = test system: HCT-116
HCT-15 = test system: HCT-15
HL-60 = test system: HL-60
HOP-62 = test system: HOP-62
HOP-92 = test system: HOP-92
HT-29 = test system: HT-29
Hs-578T = test system: Hs-578T
IGROV-1 = test system: IGROV-1
K562 = test system: K562
KM12 = test system: KM12
LOX IMVI = test system: LOX IMVI
M14 = test system: M14
MCF7 = test system: MCF7
MDA-MB-231 = test system: MDA-MB-231
MDA-MB-435 = test system: MDA-MB-435
MOLT-4 = test system: MOLT-4
Malme-3M = test system: Malme-3M
NCI-H226 = test system: NCI-H226
NCI-H23 = test system: NCI-H23
NCI-H460 = test system: NCI-H460
NCI-H522 = test system: NCI-H522
NCI/ADR-RES = test system: NCI/ADR-RES
OVCAR-3 = test system: OVCAR-3
OVCAR-4 = test system: OVCAR-4
OVCAR-5 = test system: OVCAR-5
OVCAR-8 = test system: OVCAR-8
PC-3 = test system: PC-3
RPMI-8226 = test system: RPMI-8226
RXF 393 = test system: RXF 393
SF-268 = test system: SF-268
SF-295 = test system: SF-295
SF-539 = test system: SF-539
SK-MEL-28 = test system: SK-MEL-28
SK-MEL-2 = test system: SK-MEL-2
SK-MEL-5 = test system: SK-MEL-5
SK-OV-3 = test system: SK-OV-3
SN12C = test system: SN12C
SNB-19 = test system: SNB-19
SNB-75 = test system: SNB-75
SR = test system: SR
SW-620 = test system: SW-620
T47D = test system: T47D
TK-10 = test system: TK-10
U-251 = test system: U-251
UACC-257 = test system: UACC-257
UACC-62 = test system: UACC-62
UO-31 = test system: UO-31
EKVX = test system: EKVX

Question: CCCc1cn2c(/C=N/NC(=N)N)c(-c3ccc(Cl)c([N+](=O)[O-])c3)nc2s1 was tested. Which GI50 (786-0) did it give?
Answer: 1.8 µM (inactive)

Question: What about the GI50 (A498) of the same compound?
Answer: 1.66 µM (inactive)

Question: What about the GI50 (A549) of the same compound?
Answer: 1.73 µM (inactive)

Question: And the GI50 (ACHN)?
Answer: 1.69 µM (inactive)

Question: What about the GI50 (BT-549) of the same compound?
Answer: 1.68 µM (inactive)

Question: And the GI50 (CAKI-1)?
Answer: 1.82 µM (inactive)

Question: And the GI50 (CCRF-CEM)?
Answer: 0.192 µM (active)

Question: And the GI50 (COLO 205)?
Answer: 1.51 µM (inactive)

Question: What about the GI50 (DU-145) of the same compound?
Answer: 1.77 µM (inactive)

Question: And the GI50 (HCT-116)?
Answer: 1.22 µM (inactive)

Question: And the GI50 (HCT-15)?
Answer: 1.7 µM

Question: What about the GI50 (HL-60) of the same compound?
Answer: 1.2 µM (inactive)

Question: What about the GI50 (HOP-62) of the same compound?
Answer: 1.88 µM (inactive)

Question: And the GI50 (HOP-92)?
Answer: 1.68 µM (inactive)

Question: What about the GI50 (HT-29) of the same compound?
Answer: 0.826 µM (active)

Question: What about the GI50 (Hs-578T) of the same compound?
Answer: 2.01 µM (inactive)

Question: And the GI50 (IGROV-1)?
Answer: 1.89 µM (inactive)

Question: And the GI50 (K562)?
Answer: 1.37 µM (inactive)

Question: And the GI50 (KM12)?
Answer: 1.33 µM (inactive)

Question: What about the GI50 (LOX IMVI) of the same compound?
Answer: 1.7 µM (inactive)

Question: What about the GI50 (M14) of the same compound?
Answer: 1.91 µM (inactive)

Question: And the GI50 (MCF7)?
Answer: 1.94 µM (inactive)

Question: What about the GI50 (MDA-MB-231) of the same compound?
Answer: 1.86 µM (inactive)

Question: And the GI50 (MDA-MB-435)?
Answer: 1.75 µM (inactive)

Question: And the GI50 (MOLT-4)?
Answer: 0.171 µM (active)

Question: What about the GI50 (Malme-3M) of the same compound?
Answer: 1.68 µM (inactive)

Question: What about the GI50 (NCI-H226) of the same compound?
Answer: 1.99 µM (inactive)

Question: And the GI50 (NCI-H23)?
Answer: 1.74 µM (inactive)

Question: And the GI50 (NCI-H460)?
Answer: 2.1 µM (inactive)

Question: And the GI50 (NCI-H522)?
Answer: 1.98 µM (inactive)

Question: What about the GI50 (NCI/ADR-RES) of the same compound?
Answer: 2.21 µM (inactive)

Question: And the GI50 (OVCAR-3)?
Answer: 1.55 µM (inactive)

Question: And the GI50 (OVCAR-4)?
Answer: 1.06 µM (active)

Question: And the GI50 (OVCAR-5)?
Answer: 1.55 µM (inactive)

Question: What about the GI50 (OVCAR-8) of the same compound?
Answer: 1.82 µM (inactive)

Question: And the GI50 (PC-3)?
Answer: 1.81 µM (inactive)

Question: And the GI50 (RPMI-8226)?
Answer: 1.64 µM (inactive)

Question: What about the GI50 (RXF 393) of the same compound?
Answer: 1.68 µM (inactive)

Question: And the GI50 (SF-268)?
Answer: 2.36 µM (inactive)

Question: What about the GI50 (SF-295) of the same compound?
Answer: 1.66 µM (inactive)

Question: What about the GI50 (SF-539) of the same compound?
Answer: 1.88 µM (inactive)

Question: What about the GI50 (SK-MEL-28) of the same compound?
Answer: 1.64 µM (inactive)

Question: And the GI50 (SK-MEL-2)?
Answer: 1.71 µM (inactive)

Question: What about the GI50 (SK-MEL-5) of the same compound?
Answer: 1.67 µM (inactive)

Question: What about the GI50 (SK-OV-3) of the same compound?
Answer: 1.5 µM (inactive)

Question: And the GI50 (SN12C)?
Answer: 1.84 µM (inactive)

Question: And the GI50 (SNB-19)?
Answer: 1.5 µM (inactive)

Question: And the GI50 (SNB-75)?
Answer: 1.74 µM (inactive)

Question: And the GI50 (SR)?
Answer: 1.25 µM (inactive)

Question: What about the GI50 (SW-620) of the same compound?
Answer: 1.07 µM (active)

Question: What about the GI50 (T47D) of the same compound?
Answer: 1.42 µM (inactive)

Question: And the GI50 (TK-10)?
Answer: 1.54 µM (inactive)

Question: What about the GI50 (U-251) of the same compound?
Answer: 1.63 µM (inactive)

Question: What about the GI50 (UACC-257) of the same compound?
Answer: 1.61 µM (inactive)

Question: And the GI50 (UACC-62)?
Answer: 1.95 µM (inactive)

Question: And the GI50 (UO-31)?
Answer: 1.76 µM (inactive)

Question: Which GI50 (786-0) does the source give for O=C(N/C(=C/c1ccc(Cl)cc1Cl)c1nc2ccccc2s1)c1ccccc1 here?
Answer: 12.9 µM (inactive)

Question: And the GI50 (A549)?
Answer: 18.1 µM (inactive)

Question: And the GI50 (ACHN)?
Answer: 6.56 µM (inactive)

Question: What about the GI50 (BT-549) of the same compound?
Answer: 21.1 µM (inactive)

Question: What about the GI50 (CAKI-1) of the same compound?
Answer: 15.8 µM (inactive)

Question: And the GI50 (CCRF-CEM)?
Answer: 4.72 µM (inactive)

Question: What about the GI50 (COLO 205) of the same compound?
Answer: 18.3 µM (inactive)

Question: And the GI50 (DU-145)?
Answer: 16.2 µM (inactive)

Question: What about the GI50 (EKVX) of the same compound?
Answer: 18.5 µM (inactive)

Question: And the GI50 (HCT-116)?
Answer: 6.78 µM (inactive)

Question: What about the GI50 (HCT-15) of the same compound?
Answer: 4.37 µM

Question: What about the GI50 (HL-60) of the same compound?
Answer: 32.4 µM (inactive)

Question: What about the GI50 (HOP-62) of the same compound?
Answer: 10.8 µM (inactive)

Question: And the GI50 (HOP-92)?
Answer: 52.6 µM (inactive)

Question: And the GI50 (HT-29)?
Answer: 19.3 µM (inactive)

Question: And the GI50 (Hs-578T)?
Answer: 12.1 µM (inactive)

Question: What about the GI50 (IGROV-1) of the same compound?
Answer: 11.1 µM (inactive)

Question: And the GI50 (K562)?
Answer: 18.5 µM (inactive)

Question: What about the GI50 (KM12) of the same compound?
Answer: 13.2 µM (inactive)

Question: What about the GI50 (LOX IMVI) of the same compound?
Answer: 5.32 µM (inactive)

Question: What about the GI50 (M14) of the same compound?
Answer: 17.7 µM (inactive)

Question: And the GI50 (MCF7)?
Answer: 16.2 µM (inactive)

Question: What about the GI50 (MDA-MB-231) of the same compound?
Answer: 10.3 µM (inactive)

Question: What about the GI50 (MDA-MB-435) of the same compound?
Answer: 15.6 µM (inactive)

Question: And the GI50 (MOLT-4)?
Answer: 14.3 µM (inactive)

Question: What about the GI50 (Malme-3M) of the same compound?
Answer: 16.4 µM (inactive)

Question: And the GI50 (NCI-H226)?
Answer: 13.6 µM (inactive)

Question: And the GI50 (NCI-H23)?
Answer: 11.8 µM (inactive)

Question: What about the GI50 (NCI-H460) of the same compound?
Answer: 17.8 µM (inactive)

Question: What about the GI50 (NCI-H522) of the same compound?
Answer: 8.34 µM (inactive)

Question: What about the GI50 (NCI/ADR-RES) of the same compound?
Answer: 15.6 µM (inactive)

Question: And the GI50 (OVCAR-3)?
Answer: 7.78 µM (inactive)

Question: And the GI50 (OVCAR-4)?
Answer: 15.5 µM (inactive)

Question: And the GI50 (OVCAR-5)?
Answer: 17.3 µM (inactive)

Question: What about the GI50 (OVCAR-8) of the same compound?
Answer: 18.6 µM (inactive)

Question: And the GI50 (PC-3)?
Answer: 18 µM (inactive)

Question: And the GI50 (RPMI-8226)?
Answer: 12.1 µM (inactive)

Question: What about the GI50 (RXF 393) of the same compound?
Answer: 31 µM (inactive)

Question: And the GI50 (SF-268)?
Answer: 14 µM (inactive)

Question: What about the GI50 (SF-295) of the same compound?
Answer: 12.7 µM (inactive)

Question: And the GI50 (SF-539)?
Answer: 15.5 µM (inactive)

Question: What about the GI50 (SK-MEL-28) of the same compound?
Answer: 15.6 µM (inactive)

Question: And the GI50 (SK-MEL-2)?
Answer: 17.7 µM (inactive)

Question: What about the GI50 (SK-MEL-5) of the same compound?
Answer: 13.5 µM (inactive)

Question: And the GI50 (SK-OV-3)?
Answer: 24.3 µM (inactive)

Question: What about the GI50 (SN12C) of the same compound?
Answer: 9.68 µM (inactive)

Question: What about the GI50 (SNB-19) of the same compound?
Answer: 19.5 µM (inactive)

Question: And the GI50 (SNB-75)?
Answer: 17.9 µM (inactive)

Question: And the GI50 (SR)?
Answer: 9.27 µM (inactive)

Question: What about the GI50 (SW-620) of the same compound?
Answer: 10.7 µM (inactive)

Question: And the GI50 (T47D)?
Answer: 13.4 µM (inactive)

Question: What about the GI50 (TK-10) of the same compound?
Answer: 21 µM (inactive)

Question: And the GI50 (U-251)?
Answer: 2.5 µM (inactive)

Question: What about the GI50 (UACC-257) of the same compound?
Answer: 13.4 µM (inactive)

Question: What about the GI50 (UACC-62) of the same compound?
Answer: 16.6 µM (inactive)

Question: And the GI50 (UO-31)?
Answer: 13.6 µM (inactive)
